Source: PubChem BioAssay AID328 (DTP/NCI, 2004)
Several values for one entry are separate records, joined by “and”; a condition that tells them apart may be missing. Equal values may be shown once. Toxic doses and inconclusive results are not listed.

System: BDF1 mice, P388 leukemia ip, median survival T/C
Assay: NCI In Vivo Anticancer Drug Screen. Data for tumor model P388 Leukemia (intraperitoneal) in B6D2F1 (BDF1) mice
Conditions: endpoint: median survival time, higher = longer survival
In short: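 Antitumour effect was judged in vivo: survival in drug-treated mice, normalised to that of vehicle-dosed controls, gives the reported T/C.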

[1] = dose: 100.0 mg/kg/injection, schedule: Q04DX003 (ip), vehicle: saline with Tween-80

In the case of `COc1cc2c(c(OC)c1OC)-c1ccc(OC)c(=O)cc1[C@@H](NC(C)=O)CC2`, the T/C (dose: 0.04 mg/kg/injection, schedule: Q01DX010 (ip), vehicle: saline) is reported as 122 % of control, the T/C (dose: 0.13 mg/kg/injection, schedule: Q01DX009 (ip), vehicle: water) is reported as 171 % of control and the T/C (dose: 0.16 mg/kg/injection, schedule: Q01DX010 (ip), vehicle: saline) is reported as 181 % of control. For the same compound, the T/C (dose: 0.25 mg/kg/injection, schedule: Q01DX009 (ip), vehicle: water) was 173 % of control, the T/C (dose: 0.32 mg/kg/injection, schedule: Q01DX010 (ip), vehicle: saline) was 154 % of control and 181 % of control and the T/C (dose: 0.64 mg/kg/injection, schedule: Q01DX010 (ip), vehicle: saline) was 163 % of control. The T/C (dose: 250.0 micrograms/kg/injection, schedule: Q01DX009 (ip), vehicle: saline) was 153 % of control, the T/C (dose: 500.0 micrograms/kg/injection, schedule: Q01DX009 (ip), vehicle: saline) was 235 % of control and the T/C (dose: 1000.0 micrograms/kg/injection, schedule: Q01DX009 (ip), vehicle: saline) was 222 % of control.
For `O=C1C(N2CC2)=C(N2CC2)C(=O)C(N2CC2)=C1N1CC1`, the T/C (dose: 0.02 mg/kg/injection, schedule: Q01DX009 (ip), vehicle: saline) was 232 % of control and 307 % of control, the T/C (dose: 0.04 mg/kg/injection, schedule: Q01DX009 (ip), vehicle: saline) was 201 % of control and the T/C (dose: 0.04 mg/kg/injection, schedule: Q04DX003 (ip), vehicle: saline with Tween-80) was 114 % of control. For the same compound, the T/C (dose: 0.06 mg/kg/injection, schedule: Q04DX003 (ip), vehicle: saline with Tween-80) was 118 % of control, the T/C (dose: 0.07 mg/kg/injection, schedule: Q04DX003 (ip), vehicle: saline with Tween-80) was 109 % of control and the T/C (dose: 0.08 mg/kg/injection, schedule: Q01DX009 (ip), vehicle: saline) was 109 % of control. For the same compound, the T/C (dose: 0.11 mg/kg/injection, schedule: Q04DX003 (ip), vehicle: other) was 200 % of control, the T/C (dose: 0.15 mg/kg/injection, schedule: Q04DX003 (ip), vehicle: saline with Tween-80) was 185 % of control and the T/C (dose: 0.25 mg/kg/injection, schedule: Q04DX003 (ip), vehicle: other) was 186 % of control. For the same compound, the T/C (dose: 0.25 mg/kg/injection, schedule: Q04DX003 (ip), vehicle: saline with Tween-80) was 163 % of control, the T/C (dose: 6.6 micrograms/kg/injection, schedule: Q01DX009 (ip), vehicle: saline with Tween-80) was 150 % of control and the T/C (dose: 10.0 micrograms/kg/injection, schedule: Q01DX009 (ip), vehicle: saline with Tween-80) was 175 % of control. For the same compound, the T/C (dose: 20.0 micrograms/kg/injection, schedule: Q01DX009 (ip), vehicle: saline with Tween-80) was 164 % of control, the T/C (dose: 30.0 micrograms/kg/injection, schedule: Q01DX009 (ip), vehicle: saline with Tween-80) was 164 % of control and the T/C (dose: 31.3 micrograms/kg/injection, schedule: Q01DX009 (ip), vehicle: saline with Tween-80) was 156 % of control. For the same compound, the T/C (dose: 45.0 micrograms/kg/injection, schedule: Q01DX009 (ip), vehicle: saline with Tween-80) was 268 % of control, the T/C (dose: 62.5 micrograms/kg/injection, schedule: Q01DX009 (ip), vehicle: saline with Tween-80) was 87 % of control and the T/C (dose: 125.0 micrograms/kg/injection, schedule: Q01DX009 (ip), vehicle: saline with Tween-80) was 86 % of control.
With `COc1ccc(C2=NNc3n[nH]c(=S)n3N2)cc1OC` the T/C [1] was 100 % of control, the T/C (dose: 200.0 mg/kg/injection, schedule: Q04DX003 (ip), vehicle: saline with Tween-80) was 100 % of control and the T/C (dose: 400.0 mg/kg/injection, schedule: Q04DX003 (ip), vehicle: saline with Tween-80) was 91 % of control.
With `Cc1cnc(Cl)nc1Sc1nc(N)nc2nc[nH]c12` the T/C (dose: 6.0 mg/kg/injection, schedule: Q01DX009 (ip), vehicle: saline with Tween-80) was 184 % of control, the T/C (dose: 33.0 mg/kg/injection, schedule: Q04DX003 (ip), vehicle: saline with Tween-80) was 118 % of control and the T/C (dose: 50.0 mg/kg/injection, schedule: Q04DX003 (ip), vehicle: saline with Tween-80) was 122 % of control. For the same compound, the T/C (dose: 75.0 mg/kg/injection, schedule: Q04DX003 (ip), vehicle: saline with Tween-80) was 109 % of control and the T/C [1] was 100 % of control.
`O=C(CCl)c1ccc[nH]1` was tested, and the T/C (dose: 25.0 mg/kg/injection, schedule: Q04DX003 (ip), vehicle: Klucel (hydroxypropylcellulose) (HPC)) was 95 % of control and the T/C (dose: 50.0 mg/kg/injection, schedule: Q04DX003 (ip), vehicle: Klucel (hydroxypropylcellulose) (HPC)) was 91 % of control.
With `CCNc1c([N+](=O)[O-])cc(S(=O)(=O)O)cc1[N+](=O)[O-]` the T/C (dose: 50.0 mg/kg/injection, schedule: Q04DX003 (ip), vehicle: saline sonified) was 100 % of control, the T/C (dose: 100.0 mg/kg/injection, schedule: Q04DX003 (ip), vehicle: saline sonified) was 104 % of control and the T/C (dose: 200.0 mg/kg/injection, schedule: Q04DX003 (ip), vehicle: saline sonified) was 104 % of control.
